Measurements reported in patent US8975265B2, “Substituted imidazo[1,2-a]pyrimidines and —pyridines” (Bayer Intellectual Property GmbH, priority 2010, dated 2015).

Columns and labels:
[1] = target: His-tagged human recombinant kinase full-length Akt1 (Homo sapiens (Human), UniProt P31749); experiment: Akt1 kinase assay (TR-FRET); format: biochemical; conditions: 10 μM ATP; read-out: Akt1, median IC50
Method: Biological Assay 1.0: Akt1 Kinase Assay
Akt1 inhibitory activity of compounds of the present invention was quantified employing the Akt1 TR-FRET assay as described in the following paragraphs.
As substrate for the kinase reaction the biotinylated peptide biotin-Ahx-[…] (C-terminus in amide form) was used which can be purchased e.g. from the company Biosynthan GmbH (Berlin-Buch, Germany).
For the assay 50 nl of a 100 fold concentrated solution of the test compound in DMSO was pipetted into a black low volume 384 well microtiter plate (Greiner Bio-One, Frickenhausen, Germany), 2 μl of a solution of Akt1 in assay buffer [50 mM TRIS/HCl pH 7.5, 5 mM MgCl2, 1 mM dithiothreitol, 0.02% (v/v) Triton X-100 (Sigma)] were added and the mixture was incubated for 15 min at 22° C. to allow prebinding of the test compounds to the enzyme before the start of the kinase reaction. […] The concentration of Akt1 in the assay was adjusted depending of the activity of the enzyme lot and was chosen appropriate to have the assay in the linear range, typical enzyme concentrations were in the range of about 0.05 ng/μl (final conc. in the 5 μl assay volume).
The resulting mixture was incubated 1 h at 22° C. to allow the binding of the biotinylated phosphorylated peptide to the streptavidine-XL665 and the antibodies. Subsequently the amount of phosphorylated substrate was evaluated by measurement of the resonance energy transfer from the anti-mouse-IgG-Eu-Chelate to the streptavidine-XL665.

[2] = system: KPL-4 breast cancer cell line; experiment: Tumor cell proliferation assay (CellTiter-Glo, 72 h), KPL-4; format: cell-based; conditions: KPL4, 72h drug exposure
Method: Biological Assay 4.0: Tumor Cell Proliferation Assays
Compounds were tested in a cell-based assay that measures the capacity of the compounds to inhibit tumour cell proliferation following a 72h drug exposure. Cell viability is determined using CellTiter-Glow® (CTG, Promega, cat# G7571/2/3). The CellTiter-Glo® Luminescent Cell Viability Assay is a homogeneous method to determine the number of viable cells in culture. Detection is based on using the luciferase reaction to measure the amount of ATP from viable cells. The amount of ATP in cells correlates with cell viability. Within minutes after a loss of membrane integrity, cells lose the ability to synthesize ATP, and endogenous ATPases destroy any remaining ATP; thus the levels of ATP fall precipitously.
For each cell line assayed, cells were plated onto a separate plate for determination of […] at t=0 hour and t=72 hour time points. Following overnight incubation at 37° C., chemiluminescence values for the t=0 samples were determined after adding 10 μl medium and 100 μl CTG solution according to manufacture protocol. Plates for the t=72 hour time points were treated with compounds diluted into growth medium at ten times final concentration added in 10 μL to the cell culture plate. Cells were then incubated for 72 hours at 37° C. Chemiluminescence values for the t=72 hour samples were determined. […] Experiments were controlled using a reference compound as standard.

[3] = system: p-AKT1/2/3-S473 in KPL4 breast tumour cell line; experiment: Cellular p-AKT1/2/3-S473 assay; format: cell-based; conditions: KPL4 breast tumour cell line, 2 hours treatment; read-out: pAKT-S743 median IC50
Method: The molecular mechanism of action was investigated in a set of experiments to assess the inhibition of the PI3K-AKT-mTOR pathway in responsive cell lines such as KPL4 breast tumour cell line (PIK3CAH1047R, HER20/E and hormone independent). The phospho-substrates of PI3K-AKT-mTOR axis were used as the read-outs to reflect pathway inhibition. Cells were seeded at 60-80% confluency per well in 96-well cell culture plates. After overnight incubation at 37° C. 5% CO2, cells were treated with compounds and vehicle at 37° C. for 2 hours. […] All measurements where at least done in duplicates and confirmed by independent repetition.
Alternatively pAKT-S473 was measured using the “Akt Duplex” of the MULTI-SPOT® Assay System (Fa. Meso Scale Discovery, Cat# N41100B-1) following manufacturers instructions. Each assay used 20 μg of protein extract and measured total AKT and p-AKT content simultaneously in one well. All measurements where at least done in duplicates and confirmed by independent repetition. Values for P-AKT are expressed as percentage of P-AKT level compared to total-AKT content of the extracts.

Chain of His-tagged human recombinant kinase full-length Akt1 (P31749 whole entry): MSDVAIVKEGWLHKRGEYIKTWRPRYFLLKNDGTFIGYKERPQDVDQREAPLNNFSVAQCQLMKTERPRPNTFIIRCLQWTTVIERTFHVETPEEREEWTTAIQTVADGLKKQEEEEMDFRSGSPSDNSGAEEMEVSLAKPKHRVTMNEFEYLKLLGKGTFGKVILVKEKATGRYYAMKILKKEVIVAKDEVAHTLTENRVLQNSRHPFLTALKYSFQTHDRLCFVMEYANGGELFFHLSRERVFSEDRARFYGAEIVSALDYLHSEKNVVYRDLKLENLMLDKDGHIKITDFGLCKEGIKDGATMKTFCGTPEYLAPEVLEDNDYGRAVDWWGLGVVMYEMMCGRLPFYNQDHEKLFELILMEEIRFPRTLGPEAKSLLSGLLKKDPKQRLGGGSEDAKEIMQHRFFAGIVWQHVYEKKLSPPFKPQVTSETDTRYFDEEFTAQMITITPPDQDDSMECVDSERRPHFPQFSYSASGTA

SMILES | IC50 [1] | IC50 [2] | IC50 [3]
NC1(c2ccc(-c3nc4ncccn4c3-c3ccccc3)cc2)CCC1 [Example 1-0, 1-[4-(3-phenyl-imidazo[1,2-a]pyrimidin-2-yl)-phenyl]-cyclobutylamine] | 348 nM | 1500 nM | 
Cc1ccn2c(-c3ccccc3)c(-c3ccc(C4(N)CCC4)cc3)nc2n1 [Example 1-1] |  | 2000 nM | 
NC1(c2ccc(-c3nc4nc(C5CC5)ccn4c3-c3ccccc3)cc2)CCC1 [Example 1-2] |  | 1800 nM | 
Cc1cnc2nc(-c3ccc(C4(N)CCC4)cc3)c(-c3ccccc3)n2c1 [Example 1-6] |  | 1000 nM | 
COc1cnc2nc(-c3ccc(C4(N)CCC4)cc3)c(-c3ccccc3)n2c1 [Example 1-7] |  | 1000 nM | 38 nM
CCOc1cnc2nc(-c3ccc(C4(N)CCC4)cc3)c(-c3ccccc3)n2c1 [Example 1-8] |  | 2300 nM | 
NC1(c2ccc(-c3nc4cc(-n5cccn5)ccn4c3-c3ccccc3)cc2)CCC1 [Example 1-11] | 102 nM | 1500 nM | 37 nM
CNC(=O)Nc1ccn2c(-c3ccccc3)c(-c3ccc(C4(N)CCC4)cc3)nc2c1 [Example 1-14] | 588 nM | 9800 nM | 1170 nM
NC1(c2ccc(-c3nc4nc(O)ccn4c3-c3ccccc3)cc2)CCC1 [Example 2-1] | 544 nM | 5400 nM | 
CCCOc1ccn2c(-c3ccccc3)c(-c3ccc(C4(N)CCC4)cc3)nc2n1 [Example 2-2] |  | 1700 nM | 250 nM
N#Cc1cccn2c(-c3ccccc3)c(-c3ccc(C4(N)CCC4)cc3)nc12 [Example 2-3] |  | 2400 nM | 32 nM
Cc1ccn2c(-c3ccccc3)c(-c3ccc(C4(N)CCC4)cc3)nc2c1 [Example 2-4] | 829 nM | 2000 nM | 292 nM
Cc1cccn2c(-c3ccccc3)c(-c3ccc(C4(N)CCC4)cc3)nc12 [Example 2-5] | 100 nM | 4300 nM | 209 nM
N#Cc1ccn2c(-c3ccccc3)c(-c3ccc(C4(N)CCC4)cc3)nc2c1 [Example 2-6] | 145 nM | 1600 nM | 333 nM
COc1ccn2c(-c3ccccc3)c(-c3ccc(C4(N)CCC4)cc3)nc2c1 [Example 2-8] | 96 nM | 1800 nM | 237 nM
CNC(=O)c1ccc2nc(-c3ccc(C4(N)CCC4)cc3)c(-c3ccccc3)n2c1 [Example 2-9] |  | 900 nM | 62 nM
COCc1ccc2nc(-c3ccc(C4(N)CCC4)cc3)c(-c3ccccc3)n2c1 [Example 2-10] |  | 1900 nM | 428 nM
COc1cccn2c(-c3ccccc3)c(-c3ccc(C4(N)CCC4)cc3)nc12 [Example 2-12] |  | 1300 nM | 159 nM
CC(O)c1ccc2nc(-c3ccc(C4(N)CCC4)cc3)c(-c3ccccc3)n2c1 (centres unmarked) [Example 2-13] |  | 2200 nM | 758 nM
NC1(c2ccc(-c3nc4cc(CO)ccn4c3-c3ccccc3)cc2)CCC1 [Example 2-14] |  | 3000 nM | 510 nM
NC1(c2ccc(-c3nc4c(CO)cccn4c3-c3ccccc3)cc2)CCC1 [Example 2-15] |  | 3200 nM | 163 nM
NC1(c2ccc(-c3nc4ccc(Br)cn4c3-c3ccccc3)cc2)CCC1 [Example 2-16] |  | 1900 nM | 477 nM

The remaining lines, values ahead:

IC50 [1] | IC50 [2] | IC50 [3] | SMILES
36 nM | 1500 nM | 35 nM | COc1ccc2nc(-c3ccc(C4(N)CCC4)cc3)c(-c3ccccc3)n2c1 [Example 2-17]
 | 1600 nM | 93 nM | CCOc1cccn2c(-c3ccccc3)c(-c3ccc(C4(N)CCC4)cc3)nc12 [Example 2-19]
188 nM | 1500 nM | 142 nM | NC1(c2ccc(-c3nc4cc(-c5cn[nH]c5)ccn4c3-c3ccccc3)cc2)CCC1 [Example 2-22]
47 nM | 9800 nM | 1010 nM | COC(=O)c1cccn2c(-c3ccccc3)c(-c3ccc(C4(N)CCC4)cc3)nc12 [Example 2-23]
 | 4500 nM | 3320 nM | COCCNCc1ccc2nc(-c3ccc(C4(N)CCC4)cc3)c(-c3ccccc3)n2c1 [Example 2-24]
504 nM | 2300 nM | 213 nM | NC1(c2ccc(-c3nc4ccc(CO)cn4c3-c3ccccc3)cc2)CCC1 [Example 2-25]
221 nM | 1900 nM | 90 nM | COc1ccc(COc2ccn3c(-c4ccccc4)c(-c4ccc(C5(N)CCC5)cc4)nc3n2)cn1 [Example 2-26]
1190 nM | 1900 nM | 111 nM | COCCOc1ccn2c(-c3ccccc3)c(-c3ccc(C4(N)CCC4)cc3)nc2n1 [Example 2-27]
179 nM | 1800 nM | 114 nM | COc1cc(COc2ccn3c(-c4ccccc4)c(-c4ccc(C5(N)CCC5)cc4)nc3n2)ccn1 [Example 2-28]
190 nM | 1800 nM |  | CCOc1ccn2c(-c3ccccc3)c(-c3ccc(C4(N)CCC4)cc3)nc2n1 [Example 2-29]
 | 2300 nM | 464 nM | CC(C)Oc1ccn2c(-c3ccccc3)c(-c3ccc(C4(N)CCC4)cc3)nc2n1 [Example 2-30]
 | 1900 nM |  | NC1(c2ccc(-c3nc4nc(OC5CCCCC5)ccn4c3-c3ccccc3)cc2)CCC1 [Example 2-31]
 | 1800 nM |  | NC1(c2ccc(-c3nc4nc(Oc5ccccc5)ccn4c3-c3ccccc3)cc2)CCC1 [Example 2-32]
379 nM | 1000 nM | 187 nM | CCc1cnc2nc(-c3ccc(C4(N)CCC4)cc3)c(-c3ccccc3)n2c1 [Example 2-33]
 | 10000 nM | 1020 nM | COC(=O)c1ccc2nc(-c3ccc(C4(N)CCC4)cc3)c(-c3ccccc3)n2c1 [Example 2-36]
 | 1600 nM | 32 nM | NC1(c2ccc(-c3nc4c(Br)cccn4c3-c3ccccc3)cc2)CCC1 [Example 2-39]
 | 1900 nM | 237 nM | NC1(c2ccc(-c3nc4cc(Br)ccn4c3-c3ccccc3)cc2)CCC1 [Example 2-40]
 | 1500 nM | 48 nM | NC1(c2ccc(-c3nc4c(F)cccn4c3-c3ccccc3)cc2)CCC1 [Example 2-44]
 | 1800 nM | 28 nM | NC1(c2ccc(-c3nc4c(Cl)cccn4c3-c3ccccc3)cc2)CCC1 [Example 2-45]
 | 1800 nM | 59 nM | NC1(c2ccc(-c3nc4ccc(F)cn4c3-c3ccccc3)cc2)CCC1 [Example 2-46]
 | 8700 nM | 303 nM | C=Cc1cccn2c(-c3ccccc3)c(-c3ccc(C4(N)CCC4)cc3)nc12 [Example 2-49]
 | 1800 nM | 140 nM | NC1(c2ccc(-c3nc4cc(-c5ccccn5)ccn4c3-c3ccccc3)cc2)CCC1 [Example 2-111]
 | 2300 nM | 101 nM | NC(=O)/C=C/c1ccn2c(-c3ccccc3)c(-c3ccc(C4(N)CCC4)cc3)nc2c1 [Example 2-124]
 | 1700 nM | 40 nM | NC1(c2ccc(-c3nc4ccc(-c5cn[nH]c5)cn4c3-c3ccccc3)cc2)CCC1 [Example 2-132]
384 nM |  |  | N[C@]1(c2ccc(-c3nc4nc(O)ccn4c3-c3ccccc3)cc2)C[C@H](O)C1 [Example 3-0, 2-[4-(cis-1-amino-3-hydroxy-cyclobutyl)-phenyl]-3-phenyl-imidazo[1,2-a]pyrimidin-7-ol]
